Experimental data: PubChem BioAssay (NCI)
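These data come from cells grown in 96-well plates and exposed to compound for 48 hours at five concentrations. Abbreviation: GI50, concentration required for 50% inhibition of growth. TGI is the concentration that stops growth completely.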

Assays:
Experiment in all cases: NCI tumour cell line growth inhibition, 48 h; in the data active = GI50 below about 0.43 µM; inactive = the rest
K-562 leukemia = test system: K-562 leukemia
HS 578T breast = test system: HS 578T breast
HCT-15 colon = test system: HCT-15 colon
TK-10 renal = test system: TK-10 renal
SN12C renal = test system: SN12C renal
LOX IMVI melanoma = test system: LOX IMVI melanoma
HOP-92 NSCLC = test system: HOP-92 NSCLC
SK-MEL-5 melanoma = test system: SK-MEL-5 melanoma
MOLT-4 leukemia = test system: MOLT-4 leukemia
OVCAR-5 ovarian = test system: OVCAR-5 ovarian
IGROV1 ovarian = test system: IGROV1 ovarian
MDA-MB-435 = test system: MDA-MB-435
KM12 colon = test system: KM12 colon
HT29 colon = test system: HT29 colon
U251 CNS = test system: U251 CNS
SW-620 colon = test system: SW-620 colon
NCI/ADR-RES ovarian = test system: NCI/ADR-RES ovarian
RXF 393 renal = test system: RXF 393 renal
NCI-H522 lung = test system: NCI-H522 lung
SF-268 CNS = test system: SF-268 CNS
SK-MEL-28 melanoma = test system: SK-MEL-28 melanoma
SF-539 CNS = test system: SF-539 CNS
EKVX NSCLC = test system: EKVX NSCLC
SK-OV-3 ovarian = test system: SK-OV-3 ovarian
SR leukemia = test system: SR leukemia
NCI-H226 lung = test system: NCI-H226 lung
NCI-H460 lung = test system: NCI-H460 lung
OVCAR-4 ovarian = test system: OVCAR-4 ovarian
HOP-62 NSCLC = test system: HOP-62 NSCLC
SNB-75 CNS = test system: SNB-75 CNS
CAKI-1 renal = test system: CAKI-1 renal
UACC-62 melanoma = test system: UACC-62 melanoma
MDA-MB-231 breast = test system: MDA-MB-231 breast
MDA-N = test system: MDA-N
786-0 renal = test system: 786-0 renal
HCT-116 colon = test system: HCT-116 colon
OVCAR-3 ovarian = test system: OVCAR-3 ovarian
HL-60(TB) leukemia = test system: HL-60(TB) leukemia
SF-295 CNS = test system: SF-295 CNS
UO-31 renal = test system: UO-31 renal
SNB-19 CNS = test system: SNB-19 CNS
CCRF-CEM leukemia = test system: CCRF-CEM leukemia
RPMI-8226 leukemia = test system: RPMI-8226 leukemia
OVCAR-8 ovarian = test system: OVCAR-8 ovarian
MCF7 breast = test system: MCF7 breast
SK-MEL-2 melanoma = test system: SK-MEL-2 melanoma
M14 melanoma = test system: M14 melanoma
A549 NSCLC = test system: A549 NSCLC
COLO 205 colon = test system: COLO 205 colon
ACHN renal = test system: ACHN renal
MALME-3M melanoma = test system: MALME-3M melanoma
PC-3 prostate = test system: PC-3 prostate
DU-145 prostate = test system: DU-145 prostate
UACC-257 melanoma = test system: UACC-257 melanoma
NCI-H23 lung = test system: NCI-H23 lung
HCC-2998 colon = test system: HCC-2998 colon
T-47D breast = test system: T-47D breast
A498 renal = test system: A498 renal
BT-549 breast = test system: BT-549 breast

Nc1ncc2c(n1)-c1ccccc1OC2N1CCOCC1 (centres undefined)
> 100 µM: TGI (K-562 leukemia) | TGI (HS 578T breast) | TGI (HCT-15 colon) | TGI (TK-10 renal) | TGI (SN12C renal) | TGI (LOX IMVI melanoma) | TGI (HOP-92 NSCLC) | TGI (SK-MEL-5 melanoma) | TGI (MOLT-4 leukemia) | TGI (OVCAR-5 ovarian) | TGI (IGROV1 ovarian) | TGI (MDA-MB-435) | TGI (KM12 colon) | TGI (HT29 colon) | TGI (U251 CNS) | TGI (SW-620 colon) | TGI (NCI/ADR-RES ovarian) | TGI (RXF 393 renal) | TGI (NCI-H522 lung) | TGI (SF-268 CNS) | TGI (SK-MEL-28 melanoma) | TGI (SF-539 CNS) | TGI (EKVX NSCLC) | TGI (SK-OV-3 ovarian) | TGI (SR leukemia) | TGI (NCI-H226 lung) | TGI (NCI-H460 lung) | TGI (OVCAR-4 ovarian) | TGI (HOP-62 NSCLC) | TGI (SNB-75 CNS) | TGI (CAKI-1 renal) | TGI (UACC-62 melanoma) | TGI (MDA-MB-231 breast) | TGI (MDA-N) | TGI (786-0 renal) | TGI (HCT-116 colon) | TGI (OVCAR-3 ovarian) | TGI (HL-60(TB) leukemia) | TGI (SF-295 CNS) | TGI (UO-31 renal) | TGI (SNB-19 CNS) | TGI (CCRF-CEM leukemia) | TGI (RPMI-8226 leukemia) | TGI (OVCAR-8 ovarian) | TGI (MCF7 breast) | TGI (SK-MEL-2 melanoma) | TGI (M14 melanoma) | TGI (A549 NSCLC) | TGI (COLO 205 colon) | TGI (ACHN renal) | TGI (MALME-3M melanoma) | TGI (PC-3 prostate) | TGI (DU-145 prostate) | TGI (UACC-257 melanoma) | TGI (NCI-H23 lung)

O=c1[nH]c(=O)n(C2CC(O)C(COP(=O)(OCC(Cl)(Cl)Cl)OCC(Cl)(Cl)Cl)O2)cc1F (centres undefined)
1.53 µM: TGI (HOP-62 NSCLC)
> 100 µM: TGI (K-562 leukemia) | TGI (HS 578T breast) | TGI (HCT-15 colon) | TGI (TK-10 renal) | TGI (SN12C renal) | TGI (LOX IMVI melanoma) | TGI (HOP-92 NSCLC) | TGI (SK-MEL-5 melanoma) | TGI (MOLT-4 leukemia) | TGI (OVCAR-5 ovarian) | TGI (IGROV1 ovarian) | TGI (MDA-MB-435) | TGI (KM12 colon) | TGI (HT29 colon) | TGI (U251 CNS) | TGI (SW-620 colon) | TGI (NCI/ADR-RES ovarian) | TGI (SF-268 CNS) | TGI (SK-MEL-28 melanoma) | TGI (EKVX NSCLC) | TGI (SK-OV-3 ovarian) | TGI (SR leukemia) | TGI (NCI-H226 lung) | TGI (NCI-H460 lung) | TGI (OVCAR-4 ovarian) | TGI (SNB-75 CNS) | TGI (CAKI-1 renal) | TGI (UACC-62 melanoma) | TGI (MDA-MB-231 breast) | TGI (MDA-N) | TGI (786-0 renal) | TGI (HCT-116 colon) | TGI (OVCAR-3 ovarian) | TGI (SF-295 CNS) | TGI (UO-31 renal) | TGI (SNB-19 CNS) | TGI (CCRF-CEM leukemia) | TGI (RPMI-8226 leukemia) | TGI (OVCAR-8 ovarian) | TGI (T-47D breast) | TGI (MCF7 breast) | TGI (SK-MEL-2 melanoma) | TGI (M14 melanoma) | TGI (A549 NSCLC) | TGI (COLO 205 colon) | TGI (ACHN renal) | TGI (MALME-3M melanoma) | TGI (PC-3 prostate) | TGI (DU-145 prostate) | TGI (UACC-257 melanoma) | TGI (NCI-H23 lung)
51 µM: TGI (HL-60(TB) leukemia)
1.62 µM: TGI (HCC-2998 colon)
> 34.8 µM: TGI (NCI-H522 lung)

COc1ccc(-c2nnc(Nc3nc(O)c(C4=c5cc(Br)ccc5=NC4=O)s3)o2)cc1
> 76.7 µM: TGI (PC-3 prostate)
> 55.6 µM: TGI (RXF 393 renal)
> 76.4 µM: TGI (OVCAR-8 ovarian)
97.7 µM: TGI (HCT-116 colon)
> 71.8 µM: TGI (NCI/ADR-RES ovarian)
57.7 µM: TGI (MDA-MB-435)
3.53 µM: TGI (MALME-3M melanoma)
> 77.8 µM: TGI (786-0 renal)
inactive: GI50 (K-562 leukemia) 20.6 µM | GI50 (HS 578T breast) 6.92 µM | GI50 (HCT-15 colon) 18.4 µM | GI50 (TK-10 renal) 18.9 µM | GI50 (SN12C renal) 15.5 µM | GI50 (LOX IMVI melanoma) 19.8 µM | GI50 (HOP-92 NSCLC) 21.2 µM | GI50 (SK-MEL-5 melanoma) 18.3 µM | GI50 (MOLT-4 leukemia) 3.51 µM | GI50 (OVCAR-5 ovarian) 26.7 µM | GI50 (IGROV1 ovarian) 2.68 µM | GI50 (MDA-MB-435) 23.8 µM | GI50 (KM12 colon) 3.54 µM | GI50 (HT29 colon) 35.4 µM | GI50 (U251 CNS) 15.4 µM | GI50 (SW-620 colon) 14.2 µM | GI50 (NCI/ADR-RES ovarian) 22.5 µM | GI50 (RXF 393 renal) 5.48 µM | GI50 (NCI-H522 lung) 19.8 µM | GI50 (SF-268 CNS) 47.5 µM | GI50 (SK-MEL-28 melanoma) 29 µM | GI50 (SF-539 CNS) 17.9 µM | GI50 (EKVX NSCLC) 9.89 µM | GI50 (SK-OV-3 ovarian) 52 µM | GI50 (SR leukemia) 1.6 µM | GI50 (A498 renal) 12.4 µM | GI50 (NCI-H226 lung) 1.02 µM | GI50 (NCI-H460 lung) 22.6 µM | GI50 (OVCAR-4 ovarian) 27.5 µM | GI50 (HOP-62 NSCLC) 24 µM | GI50 (SNB-75 CNS) 21.6 µM | GI50 (HCC-2998 colon) 1.34 µM | GI50 (CAKI-1 renal) 17.2 µM | GI50 (UACC-62 melanoma) 1.08 µM | GI50 (786-0 renal) 25.1 µM | GI50 (HCT-116 colon) 25.5 µM | GI50 (OVCAR-3 ovarian) 15.5 µM | GI50 (HL-60(TB) leukemia) 0.633 µM | GI50 (SF-295 CNS) 20.6 µM | GI50 (UO-31 renal) 19.4 µM | GI50 (SNB-19 CNS) 28.1 µM | GI50 (CCRF-CEM leukemia) 6.79 µM | GI50 (RPMI-8226 leukemia) 17.3 µM | GI50 (OVCAR-8 ovarian) 19.3 µM | GI50 (T-47D breast) 41.9 µM | GI50 (BT-549 breast) 6.49 µM | GI50 (MCF7 breast) > 43.9 µM | GI50 (SK-MEL-2 melanoma) 17.3 µM | GI50 (M14 melanoma) 20.1 µM | GI50 (A549 NSCLC) 26.8 µM | GI50 (COLO 205 colon) 32 µM | GI50 (PC-3 prostate) 18.1 µM | GI50 (DU-145 prostate) 16.9 µM | GI50 (UACC-257 melanoma) 7.79 µM | GI50 (NCI-H23 lung) 23.6 µM
40.3 µM: TGI (OVCAR-3 ovarian)
51 µM: TGI (TK-10 renal)
32.7 µM: TGI (CCRF-CEM leukemia)
65.6 µM: TGI (HOP-92 NSCLC)
> 59.5 µM: TGI (SK-MEL-5 melanoma)
active: GI50 (MDA-MB-231 breast) 0.421 µM
26.7 µM: TGI (UACC-62 melanoma)
27.6 µM: TGI (MOLT-4 leukemia)
75.2 µM: TGI (K-562 leukemia) | TGI (SNB-75 CNS)
8.35 µM: TGI (NCI-H226 lung)
> 100 µM: TGI (HT29 colon) | TGI (SW-620 colon) | TGI (SF-268 CNS) | TGI (SK-MEL-28 melanoma) | TGI (SK-OV-3 ovarian) | TGI (NCI-H460 lung) | TGI (OVCAR-4 ovarian) | TGI (T-47D breast) | TGI (MCF7 breast) | TGI (A549 NSCLC) | TGI (COLO 205 colon)
23.8 µM: TGI (IGROV1 ovarian)
30.7 µM: TGI (U251 CNS)
> 71.1 µM: TGI (HOP-62 NSCLC)
23.5 µM: TGI (KM12 colon)
10 µM: TGI (MDA-MB-231 breast)
> 55.8 µM: TGI (EKVX NSCLC)
9.89 µM: TGI (HL-60(TB) leukemia)
35.9 µM: TGI (SR leukemia)
33.8 µM: TGI (HCC-2998 colon)
> 63 µM: TGI (HCT-15 colon)
22.5 µM: TGI (HS 578T breast)
27.9 µM: TGI (BT-549 breast)
80.3 µM: TGI (OVCAR-5 ovarian)
> 74.2 µM: TGI (NCI-H522 lung)
41.3 µM: TGI (SF-539 CNS)
46.4 µM: TGI (A498 renal)
63.1 µM: TGI (UO-31 renal)
50.1 µM: TGI (CAKI-1 renal)
60.4 µM: TGI (SF-295 CNS)
> 69.3 µM: TGI (NCI-H23 lung)
> 56.3 µM: TGI (DU-145 prostate)
63.7 µM: TGI (M14 melanoma)
> 66.5 µM: TGI (RPMI-8226 leukemia)
38.8 µM: TGI (ACHN renal)
48.8 µM: TGI (SK-MEL-2 melanoma)
> 83.4 µM: TGI (SNB-19 CNS)
62 µM: TGI (LOX IMVI melanoma)
56.9 µM: TGI (UACC-257 melanoma)
52.8 µM: TGI (SN12C renal)
